The target of this experiment is T1, MeCP2-TBL1 interaction (MeCP2-SmBiT / TBL1-LgBiT) (Mus musculus, UniProt Q9QXE7).
T1 construct: expressed in transfected cells; crude lysate used as a cell-free assay
T1 sequence (Q9QXE7 166-527): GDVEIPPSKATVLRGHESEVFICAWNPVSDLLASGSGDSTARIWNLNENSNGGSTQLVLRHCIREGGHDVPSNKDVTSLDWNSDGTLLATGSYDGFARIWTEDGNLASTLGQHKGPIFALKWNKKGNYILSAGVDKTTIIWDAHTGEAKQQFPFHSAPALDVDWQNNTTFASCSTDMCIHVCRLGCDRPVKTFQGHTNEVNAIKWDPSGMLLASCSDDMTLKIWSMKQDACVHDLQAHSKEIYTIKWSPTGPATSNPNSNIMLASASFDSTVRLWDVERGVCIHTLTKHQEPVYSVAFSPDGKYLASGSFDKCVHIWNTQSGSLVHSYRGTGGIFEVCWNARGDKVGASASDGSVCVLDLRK
The experiment can be described thus: MeCP2-TBL1 NanoLuc luciferase complementation assay (cell-free, extracts of transfected HEK293 cells).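 Note: each compound tested at 20 µM final concentration.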 The format is binding, human. The procedure, abridged:
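Cell-free split NanoLuc: lysate of HEK293 cells co-expressing the MeCP2 C-terminal half-SmBiT and TBL1 WD domain-LgBiT, mixed 1:1 with furimazine. After 30 min at room temperature, luminescence was plate-median normalized.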

The mark [1] stands for this setting: primary screen of the Asinex library, sheet "Sargen output Asinex library", one well per compound.
[2] abbreviates: primary screen of the Asinex library, sheet "Sargen output Asinex library", one well per compound, Batch Ref. 1.
Setting [3] is: primary screen of Asinex library, single well per compound.

For 59 compounds, Inhibition percent results are on record in PMC9995496, “A screen for MeCP2-TBL1 interaction inhibitors using a luminescence-based assay” (Scientific Reports, 2023).

As for `COc1cccc(-c2cc(C(=O)N3CCCCC3c3ncc(Cc4ccccc4)o3)on2)c1` (centres unmarked) [BDE_33514162], the Inhibition percent under setting [1] is recorded as 7.15%.
Regarding `CN1C(=O)C2(CCN(C(=O)C3(c4ccccc4)CCOCC3)CC2)CC1Cc1ccccc1` (centres unmarked) [BDH_32374590], the Inhibition percent under setting [2] was determined as 0.40%.
For `O=C(c1cccc(Nc2ncccn2)c1)N1C2CCC1CC(Cc1ccc3ccncc3c1)C2` (centres unmarked) [BDH_32356948], under setting [3], the Inhibition percent was 3.03.
Same read-out and setting: under `Cc1nc2ccc(NC(=O)CN3C[C@@H](c4cc(F)cc(F)c4)[C@@]4(CCCCC(=O)N4)C3)cc2[nH]1` [BDH_33616136] stands -1.00.
In the case of `COCCN1CC=CCC2(CCN(CC(=O)N(Cc3ccccc3)C(C)C)CC2)C1=O` [BDE_25851451], under setting [1], the Inhibition percent is -2.37%.
As for `C[C@]12C[C@@H](Cc3ccccc3)N(C(=O)CCN3C(=O)CCCC3=O)[C@H]1CCCC(=O)N2` [BDH_33628122], the Inhibition percent under setting [2] was found to be 1.89%.
In the case of `COc1ccc(C(=O)N2CCCC(Cc3ccc4ncccc4c3)C2)cc1NCc1ccncc1` (centres unmarked) [BDH_32359951], the Inhibition percent under setting [1] is -4.50%.
Take `O=C(COc1ncnc2ccccc12)N1CCCCC1c1ncc(Cc2cccc(Cl)c2)o1` (centres unmarked) [BDE_33513542]: the Inhibition percent under setting [2] was 4.13%.
As to `COc1cccc2c1OC1(CCN(Cc3cccc(O)c3)CC1)[C@H]1CCCO[C@H]21` [BDG_33900272], the Inhibition percent under setting [2] worked out at 6.42%.
On the same count and under the same terms, under `COCCNC(=O)c1sc2ccccc2c1C1CN(C(=O)C(C)(C)OC)CCO1` (centres unmarked) [BDD_24015180] stands -2.46%.
Take `CN(C)CCOc1ccc(C(=O)N(C)CC2(O)CCCN(c3ccnc4ccncc34)C2)cc1` (centres unmarked) [BDH_34040371]: the Inhibition percent under setting [3] was -4.15.
With `Cn1cc(CCC(=O)N2CCCC2c2ccc(CNC3Cc4ccccc4C3)cn2)c2ccccc21` (centres unmarked) [BDD_27352850], the Inhibition percent under setting [1] is reported as -1.33%.
The same measure, in the same setting: to `COc1ccc([C@@H]2[C@H]3CCCC[C@@]3(O)CCN2CC(=O)Nc2ccc(N3CCOCC3)cc2)cc1` [BDH_33614948] belongs 1.72%.
Still for that read-out and setting: under `O=C(CCCNc1ncccn1)N1CCCC1c1cncc(Cc2cccc(Cl)c2)n1` (centres unmarked) [BDE_27217604] stands -3.79%; under `CC(C)(NC(=O)c1ccccc1)C(=O)N1C2CCC1CC(Cc1ccc3ccncc3c1)C2` (centres unmarked) [BDH_32326823], -1.86%; under `COc1ccc(C2(C(=O)N3CCC(Cc4ccc5ncccc5c4)CC3)CCOCC2)cc1` [BDH_32344075], -2.33%.
Still for that read-out and setting: under `CC(=O)N[C@@]12CN(C)CC[C@@H]1[C@@H](c1ccccc1)N(CC(=O)Nc1cccc(C)c1C)C2` [BDH_33621433] stands -4.50%; under `Cc1c(C(=O)N2CCC(O)(CN3CCN(c4ccccc4)CC3)C2)cccc1N1CCOCC1` (centres unmarked) [BDH_32364008], -0.54%.
In the case of `CC(=O)N[C@@]12CCN(S(=O)(=O)Cc3cccc(Cl)c3)C[C@@H]1[C@@H](c1ccccc1)N(C(C)=O)C2` [BDF_30361318], under setting [3], the Inhibition percent is reported as -5.79.
`COc1ccccc1Cc1cnc(C2CCCN(S(=O)(=O)c3cn(C)nc3C)C2)o1` (centres unmarked) [BDE_33511387]: the Inhibition percent under setting [2] is 4.61%.
On the same count and under the same terms, to `COc1cccc2c1OC1(CCN(C(=O)C(C)(C)OC)CC1)[C@H]1CCCO[C@H]21` [BDG_33900230] belongs -2.85%.
In the case of `CC(=O)N[C@H]1C[C@@H](C(=O)N(C)C)N(CC(=O)NCc2ccccc2Cl)[C@H]1c1ccccc1` [BDH_33626360], under setting [2], the Inhibition percent is listed as 0.20%.
For the compound `O=C1CCCN1CCOc1ccccc1C(=O)N1CCCC(Cc2ccc3ncccc3c2)CC1` (centres unmarked) [BDH_32358602], under setting [1], the Inhibition percent is given as -0.32%.
As for `CC(C)(NC(=O)COc1ccccc1)C(=O)N1CCC(Cc2cccc3ncccc23)CC1` [BDH_32354908], the Inhibition percent under setting [3] was -2.23.
For `COc1ccc(Cc2cccc(C3CCN(C(=O)Cc4ccc(F)cc4)CC3)n2)cc1` [BDC_27855593], under setting [1], the Inhibition percent is given as 0.65%.
`Cc1cc(Oc2ccc(F)cc2)nc(C2CCCCN2C(=O)c2cccc(-n3cnnc3)c2)n1` (centres unmarked) [BDH_32364593]: the Inhibition percent under setting [3] is reported as -1.56.
For the compound `Cc1ccc(NC(=O)c2cccc(C3CCCN3C(=O)CCCN3Cc4ccccc4C3)n2)nc1` (centres unmarked) [BDH_33628747], under setting [1], the Inhibition percent is recorded as -0.70%.
On the same count and under the same terms, under `CC(=O)Nc1cccc([C@@H]2CN(Cc3ccc4c(c3)n(C)c(=O)n4C)C[C@]23CCCCC(=O)N3)c1` [BDD_25153608] stands -1.53%; under `CC(C)(NC(=O)c1cccc(F)c1)C(=O)N1CCC(c2cccc(Cc3ccccc3)n2)CC1` [BDH_32354126], -0.56%; under `COc1cccc([C@H]2C[C@@](C)(NC(=O)C(C)C)[C@@H]3CC[C@@H](C)C[C@H]3O2)c1OCCN(C)C` [BDH_33687810], -1.87%.
As for `CNc1nc(C2CCCNC2)nc2c1CCN(C(=O)C1(Oc3ccccc3)CCCCC1)C2` (centres unmarked) [BDE_26713143], the Inhibition percent under setting [3] is listed as -1.93.
Take `Cc1cc2ncn(CCC(=O)N3[C@H](Cc4ccccc4)C[C@]4(C)NC(=O)CCC[C@H]34)c2cc1C` [BDH_33631266]: the Inhibition percent under setting [2] was -1.89%.
Turning to `COc1ccc(C2CCCN2C(=O)Cn2cc(NC(=O)Cc3ccccc3F)cn2)cc1` (centres unmarked) [BDC_25693383], under setting [1], the Inhibition percent is reported as -0.19%.
Turning to `CC1(Cc2ccc(F)cc2)Cc2cc(C(=O)N(CCCc3ccc(Cl)cc3)CC(=O)O)ccc2O1` (centres unmarked) [BDG_34127624], the Inhibition percent under setting [2] amounted to 0.89%.
As for `Cc1cccc(Cc2cccc(C3CCCN(C(=O)c4ccnc(-c5cncnc5)c4)C3)n2)c1` (centres unmarked) [BDH_32367369], the Inhibition percent under setting [3] is recorded as -1.96.
For `COc1cccc([C@@H]2C[C@]3(C)NC(=O)CCCC[C@@H]3N2CC(=O)Nc2ccn(C)n2)c1` [BDH_33620384], the Inhibition percent under setting [3] is -2.63.
On the same count and under the same terms, under `O=C(c1cccc(Nc2ncccn2)c1)N1CCC2(CC1)COC(Cc1cccc(F)c1)C2` (centres unmarked) [BDH_32363979] stands 9.41.
Regarding `COc1ccc(C)c(NC(=O)CN2CC[C@@H]3[C@@H](c4ccccc4)N(C(C)=O)C[C@]3(NC(C)=O)C2)c1` [BDH_33618463], the Inhibition percent under setting [1] is -3.37%.
In the case of `C[C@]12C[C@@H](Cc3ccccc3)N(C(=O)c3ccc(OCCN4CCCCC4)cc3)[C@H]1CCCC(=O)N2` [BDH_33629014], the Inhibition percent under setting [3] is on record as -1.82.
For `CN(Cc1ccccc1)[C@@H]1[C@@H](O)[C@H](Oc2cccc(C(F)(F)F)c2)C[C@H]1NC(=O)c1cocn1` [BDI_34061115], the Inhibition percent under setting [2] was determined as 4.93%.
Same read-out and setting: to `Cc1ccc2c(c1)OC(C)(C)[C@H]1CC3(CO[C@H]21)CN(C(=O)CCn1nc(O)ccc1=O)C3` [BDG_33741109] belongs -2.39%.
With `Clc1cccc(Cc2cncc(C3CCCN3Cc3ccnc(N4CCOCC4)n3)n2)c1` (centres unmarked) [BDH_27227771], the Inhibition percent under setting [1] is on record as 3.31%.
For the compound `Cc1cc(Oc2ccccc2F)nc(C2CCN(C(=O)c3cccc(-c4cncnc4)n3)CC2)n1` [BDH_32368986], the Inhibition percent under setting [2] is 1.94%.
Take `COc1ccccc1Oc1cccc(C2CCN(C(=O)c3ccc(-c4cncnc4)nc3)CC2)n1` [BDH_32370065]: the Inhibition percent under setting [3] is on record as -2.43.
In the case of `Cc1nc2c(c(Nc3ccccn3)n1)CCN(C(=O)C1CCCCN1C(=O)OC(C)(C)C)C2` (centres unmarked) [BDE_27755327], under setting [2], the Inhibition percent is -1.68%.
The same measure, in the same setting: to `O=C1CCC[C@]2(CN(Cc3cccc(-c4ccccc4F)c3)C[C@H]2c2ccccc2F)N1` [BDD_23570797] belongs 11.53%.
Turning to `O=C(c1cc(-c2cccc(F)c2)no1)N1CCC[C@@]2(C[C@@H](Oc3ccccc3F)CO2)C1` [BDH_33517958], the Inhibition percent under setting [1] stood at 4.74%.
With `COc1cccc([C@@H]2C[C@]3(C)NC(=O)CCCC[C@@H]3N2CC(=O)Nc2cc(F)ccc2C)c1` [BDH_33620981], under setting [3], the Inhibition percent is reported as -1.41.
As to `O=C1COc2ccccc2CCCC[C@@H]2CN(C(=O)CCCn3cccn3)CC[C@H]2N1` [BDH_33762630], under setting [1], the Inhibition percent was 0.76%.
As for `COCCN1C(=O)C[C@@H](C(=O)NCc2ccccc2COC)[C@@H]1c1ccccc1` [BDC_32231307], the Inhibition percent under setting [3] was -0.68.
On to `C[C@@H]1CC[C@@H]2[C@@H](O1)c1cc(C(=O)NCCc3ccccc3)ccc1OC2(C)C` [BDG_34018895], for which, under setting [1], the Inhibition percent was -0.86%.
In the case of `O=C(c1ccc(CN2CCOCC2)cc1)N1CCCC1c1ccnc(-c2cccc(Cl)c2)n1` (centres unmarked) [BDE_33630026], under setting [2], the Inhibition percent came out at 0.26%.
With `CCc1nnsc1C(=O)NC[C@]1(c2ccccc2)CC[C@@H](O)[C@H](N2CCOCC2)CC1` [BDH_34124703], under setting [1], the Inhibition percent was found to be 0.50%.
On the same count and under the same terms, to `Cc1cc(C)cc(-c2cccc(CC3(C(=O)NCCCN4CCC(C)CC4)CCOCC3)c2)c1` [BDD_24116218] belongs -2.01%.
As for `COc1cccc([C@@H]2C[C@]3(C)NC(=O)CCCC[C@@H]3N2CC(=O)Nc2cc(C)ccc2F)c1` [BDH_33619764], the Inhibition percent under setting [3] is -0.65.
In the case of `CC(=O)N[C@@]12CN(C)CC[C@@H]1[C@@H](c1ccccc1)N(CC(=O)Nc1ccc3c(c1)OCCO3)C2` [BDH_33617398], under setting [1], the Inhibition percent is reported as -1.20%.
For `Cc1nc(C2CCN(C(=O)c3cccnc3)CC2)nc2c1CCCN2CCc1ccccc1` [BDE_27576245], under setting [2], the Inhibition percent is recorded as -0.64%.
Same read-out and setting: to `Cc1cc(Nc2cccc(C3CCCN(C(=O)C4CCCCN4C(=O)OC(C)(C)C)C3)n2)[nH]n1` (centres unmarked) [BDD_30366487] belongs 3.82%; to `COc1ccccc1Cc1cccc(C2CCCN2C(=O)Cc2c[nH]c3ccccc23)n1` (centres unmarked) [BDD_27856210], 9.99%.
